# In patent US20080200460A1, “Chemical Compounds” (priority 2004, published 2008):
# Target: recombinant human CCR5 receptor (Homo sapiens, UniProt P51681)
# Experiment: in vitro radioligand binding assay: inhibition of binding of iodinated MIP-1α (scintillation proximity)
# Settings: displacement of iodinated MIP-1α from membranes of Chinese hamster ovary cells expressing recombinant human CCR5; negative log10 of IC50; average if tested more than once
# Protocol: The ability of compounds to inhibit the binding of MIP-1α was assessed by an in vitro radioligand binding assay. Membranes were prepared from Chinese hamster ovary cells which expressed the recombinant human CCR5 receptor. These membranes were incubated with […] iodinated MIP-1α, scintillation proximity beads and various concentrations of the compounds of the invention in 96-well plates. The amount of iodinated MIP-1α bound to the receptor was determined by scintillation counting. Competition curves were obtained for compounds and the concentration of compound which displaced 50% of bound iodinated MIP-1α was calculated (IC50).
# Results from this test for certain compounds of the invention are presented in Table V. In Table V the results are presented as Pic50 values. A Pic50 value is the negative log (to base 10) of the IC50 result, so an IC50 of 1 μM (that is 1×10^−6M) gives a Pic50 of 6. If a compound was tested more than once then the data below is an average of the probative tests results.
# Chain of recombinant human CCR5 receptor (P51681 whole entry): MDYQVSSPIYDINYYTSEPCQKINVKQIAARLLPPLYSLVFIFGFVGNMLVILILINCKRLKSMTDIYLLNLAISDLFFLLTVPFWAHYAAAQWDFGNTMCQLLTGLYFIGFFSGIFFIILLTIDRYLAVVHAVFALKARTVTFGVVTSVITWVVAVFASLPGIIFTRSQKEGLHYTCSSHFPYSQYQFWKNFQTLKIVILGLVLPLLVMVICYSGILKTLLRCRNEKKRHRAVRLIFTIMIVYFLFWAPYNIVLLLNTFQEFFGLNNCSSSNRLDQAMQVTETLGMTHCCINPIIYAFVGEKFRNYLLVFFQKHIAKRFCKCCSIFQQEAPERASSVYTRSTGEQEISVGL
row,IC50,SMILES
1,0.794 nM,"CCN(C(=O)CC1CCN(S(C)(=O)=O)CC1)C1CCN(CC[C@H](c2ccc(S(C)(=O)=O)cc2)c2cc(F)cc(F)c2)CC1 [Compound 1 Table III, N-(1-{(3R)-3-(3,5-difluorophenyl)-3-[4-(methylsulphonyl)phenyl]propyl}piperidin-4-yl)-N-ethyl-2-[1-(methylsulphonyl)piperidin-4-yl]acetamide]"
2,15.8 nM,"CCN(C(=O)CC1CCOCC1)C1CCN(CC[C@H](c2ccc(S(C)(=O)=O)cc2)c2cc(F)cc(F)c2)CC1 [Compound 2 Table III, N-(1-{(3R)-3-(3,5-difluorophenyl)-3-[4-(methylsulphonyl)phenyl]propyl}piperidin-4-yl)-N-ethyl-2-(tetrahydro-2H-pyran-4-yl)acetamide]"
3,0.316 nM,"C=CCN(C(=O)CC1CCN(S(C)(=O)=O)CC1)C1CCN(CC[C@@H](c2cc(F)cc(F)c2)C2CCN(S(C)(=O)=O)CC2)CC1 [Compound 7 Table I, N-allyl-N-(1-{(3R)-3-(3,5-difluorophenyl)-3-[1-(methylsulfonyl)piperidin-4-yl]propyl}piperidin-4-yl)-2-[1-(methylsulfonyl)piperidin-4-yl]acetamide]"
4,3.16 nM,"CCN(C(=O)CN1CCN(S(C)(=O)=O)CC1)C1CCN(CC[C@@H](c2cc(F)cc(F)c2)C2CCN(S(C)(=O)=O)CC2)CC1 [Compound 5 Table I, N-(1-{(3R)-3-(3,5-difluorophenyl)-3-[1-(methylsulfonyl)piperidin-4-yl]propyl}piperidin-4-yl)-N-ethyl-2-[4-(methylsulfonyl)piperazin-1-yl]acetamide]"
5,0.316 nM,CCN(C(=O)NCC1CCN(S(C)(=O)=O)CC1)C1CCN(CC[C@H](c2ccc(S(C)(=O)=O)cc2)c2cc(F)cc(F)c2)CC1 [Compound 1 Table IV]
